# Measured values from US8921108B2, “Differentiated human liver cell cultures and their use in bioartificial liver systems” (Academisch Ziekenhuis Bij de Universiteit van Amsterdam, priority 2009, dated 2014).
# Where “and” joins values, the source holds several entries; their conditions need not be identical. Equal entries are not always repeated.
# How the values were obtained:
# HepaRG cells [1] = experiment: Total protein content of HepaRG monolayer cultures; type: cell-based, human
# Method: (§1) For testing, the cells are seeded in 6-well and 24-well culture plates (Corning) in HepaRG media with different FBS batches or other differences in medium composition. After a 2 weeks proliferation phase, 2% of DMSO will be added to half of the cultures. After another 2 weeks of culturing, the confluence and morphology of the cultures will be assessed microscopically. Furthermore the +DMSO and −DMSO cell cultures in the 24-well plates will be tested for biochemical activity, i.e. urea production, ammonia elimination and protein content. The cultured cells are washed twice using phosphate buffered saline (PBS, NBPI International) and then incubated with test medium consisting of HepaRG culture medium supplemented with 1.5 mM ^15NH4Cl (Sigma), 2.75 mM D-galactose (Sigma), 2 mM ornithine hydrochloride (Sigma) and 2 mM L-lactate (Sigma). Medium samples are taken after 1 hr from the culture wells, as a reference, and after 24 hours. At the end of the test period the cells are washed three times using PBS and stored at −20° C. for protein determination. From the changes in concentration at t=1 hr and 24 hr of urea and ammonia an activity per hour and per mg protein/well is calculated. Quality of the cell-loaded bioreactors, measured by hepatocyte function at the start of the treatment, will be compared with values of primary hepatocytes that have been tested extensively in vitro in the past.
# Total protein: Total protein was quantified by spectrometry using Coomassie blue (Bio-Rad).
# HepaRG cells [2] = experiment: Ammonia elimination of HepaRG monolayer cultures; type: cell-based, human
# Method: For testing, the cells are seeded in 6-well and 24-well culture plates (Corning) in HepaRG media with different FBS batches or other differences in medium composition. After a 2 weeks proliferation phase, 2% of DMSO will be added to half of the cultures. After another 2 weeks of culturing, the confluence and morphology of the cultures will be assessed microscopically. Furthermore the +DMSO and −DMSO cell cultures in the 24-well plates will be tested for biochemical activity, i.e. urea production, ammonia elimination and protein content. […] From the changes in concentration at t=1 hr and 24 hr of urea and ammonia an activity per hour and per mg protein/well is calculated. Quality of the cell-loaded bioreactors, measured by hepatocyte function at the start of the treatment, will be compared with values of primary hepatocytes that have been tested extensively in vitro in the past.
# Ammonia: Ammonia concentrations are determined by an enzymatic kinetic colorimetric assay using glutamate dehydrogenase and NADPH, using the Ammonia (rapid) kit (Megazyme, Ireland) according to the instructions of the manufacturer.
# HepaRG cells [3] = experiment: Urea production of HepaRG monolayer cultures; type: cell-based, human
# Method: For testing, the cells are seeded in 6-well and 24-well culture plates (Corning) in HepaRG media with different FBS batches or other differences in medium composition. After a 2 weeks proliferation phase, 2% of DMSO will be added to half of the cultures. After another 2 weeks of culturing, the confluence and morphology of the cultures will be assessed microscopically. Furthermore the +DMSO and −DMSO cell cultures in the 24-well plates will be tested for biochemical activity, i.e. urea production, ammonia elimination and protein content. […] Medium samples are taken after 1 hr from the culture wells, as a reference, and after 24 hours. At the end of the test period the cells are washed three times using PBS and stored at −20° C. for protein determination. From the changes in concentration at t=1 hr and 24 hr of urea and ammonia an activity per hour and per mg protein/well is calculated.
# Urea: Urea concentrations of test medium samples are determined using the blood urea nitrogen test of Sigma Chemical Co according to the instructions of the manufacturer.
# (§2) The HepaRG cells are cultured as indicated above in 24 well in presence or absence of 1 mM CG during the last 5 days. Next the cells are tested as indicated above in presence or absence of CG during 24 hours. To determine the conversion of ammonia into urea, the ^15N urea enrichment (single and double labeled) is measured in the test samples using mass-spectrometry. Similarly, HepG2 and cBAL111 cells were tested for their response to CG.
# HepaRG cells [4] = experiment: 15N urea enrichment (conversion of ammonia into urea) in HepaRG monolayer cultures; type: cell-based, human; conditions: HepaRG monolayer +DMSO, no CG
# Method: as §1
# ^15N Urea: Single and Double labelled urea is measured in the test medium samples using mass-spectrometry.
# as §2
# HepaRG cells [5] = experiment: Galactose elimination of HepaRG monolayer cultures; type: cell-based, human; conditions: HepaRG monolayer +DMSO
# Method: as §1
# HepaRG cells [6] = experiment: ApoA1 production of HepaRG monolayer cultures (ELISA); type: cell-based, human
# Method: as §1
# ApoA1: Human ApoA1 concentrations are determined by ELISA using rabbit anti-human ApoA1 (1:500, Calbiochem, 178422), as first antibody, monoclonal mouse anti human ApoA1 (1:500, Calbiochem, 178472) as second antibody and polyclonal rabbit anti mouse IgG-HRP (1:2000, Dako Po 260) as third antibody.
# HepaRG cells [7] = experiment: AST and LDH leakage of HepaRG monolayer cultures; type: cell-based, human; conditions: HepaRG monolayer +DMSO
# Method: as §1
# AST and LDH: Both AST and LDH activities are analyzed spectrophotometrically using a P800 Roche Diagnostics analyzer.
# HepaRG cells [8] = experiment: Lactate elimination/consumption of HepaRG monolayer cultures; type: cell-based, human
# Method: as §1, with “At the end of the test period the cells are washed three times using PBS and stored at −20° C. for protein determination.” left out
# Lactate and glucose concentration: Both are analyzed using a P800 analyzer (Roche Diagnostics).
# HepaRG cells [9] = experiment: RT-PCR mRNA levels of hepatic genes in HepaRG monolayer cultures; type: cell-based, human
# Method: The HepaRG cells cultured in the 6-well plates are lysed and the RNA is isolated using the RNeasy kit (Qiagen). Next, real-time reverse transcriptase-polymerase chain reactions (RT-PCR) are performed to quantify mRNA levels of hepatic genes as well as 18S ribosomal RNA levels by RT-PCR.
# First-strand cDNA is generated using a combination of 40 pmol of gene-specific RT-primers (see Table 1) and 134 units of Superscript III (Invitrogen) and 1 μg RNA in a total volume of 25 μl at 50° C. for one hour followed by a 15 min incubation at 70° C. The resulting gene-specific RT reaction mixtures are column purified using Qiaquick PCR Purification Kit (Qiagen).
# Real-time PCR is performed using 1 μl of cDNA and LightCycler FastStart DNA Master SYBR® Green 1 reagent (Roche). PCR primers are depicted in the Table 3. The thermal cycling profile of the touchdown PCR is as follows: 94° C. for 10 min, followed by 40 cycles of 94° C. for 1 s, primer annealing at 68° C. for 7 s with a 0.5° C./cycle decrease until 63° C., and extension for 40 s at 72° C. PCR specificity is verified by melting curve analysis and agarose gel electrophoresis. The mRNA quantification is carried out by using the LinRegPCR programme (Ramakers et al.^17). For each sample the mRNA starting level is normalised for the 18S rRNA starting level. To correct for variations between RT-PCR runs, the mRNA starting levels of liver specific genes of NKNT-3 cells are additionally standardized for average mRNA starting levels of two liver samples that are simultaneously subjected to RT-PCR.
# Arginase II (Arg II) = molecular target: T1, Arginase II (Arg II) (Homo sapiens, UniProt P78540); conditions: C3A cells; cited from earlier work
# T1 construct: Arginase II (Arg II) mRNA and protein was expressed at high levels in C3A cells; endogenous in cells; host or cells: C3A cells (HepG2 sub-clone)
# T1 sequence (P78540 23-354): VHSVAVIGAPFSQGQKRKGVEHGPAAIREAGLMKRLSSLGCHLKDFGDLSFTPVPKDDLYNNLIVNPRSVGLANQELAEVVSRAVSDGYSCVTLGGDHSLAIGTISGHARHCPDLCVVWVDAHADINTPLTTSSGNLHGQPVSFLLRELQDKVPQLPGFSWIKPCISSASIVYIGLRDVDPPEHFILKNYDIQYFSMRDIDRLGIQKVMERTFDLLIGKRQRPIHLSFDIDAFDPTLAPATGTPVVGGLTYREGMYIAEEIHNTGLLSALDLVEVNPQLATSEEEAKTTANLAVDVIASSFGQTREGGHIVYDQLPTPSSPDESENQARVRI
# [10] = HepaRG monolayer, 2% DMSO last 2 weeks, no CG
# [11] = HepaRG monolayer +DMSO, per well
# [12] = HepaRG monolayer, DMSO treatment
structure (smiles),measurement,setting,value
"C[S+](C)[O-] [DMSO, dimethylsulfoxide]",total protein/well,HepaRG cells [1]; [10],109 ± 21 µg
same,cells killed by DMSO treatment,"HepaRG cells [1]; HepaRG monolayer, deduced from total protein/well content and increased cell leakage",more than 50%
same,effect on cell number,"HepaRG cells [1]; presence of DMSO, deduced from total protein content",drastically reduced
same,Ammonia elimination (absolute value),HepaRG cells [2]; [11],11.6 ± 4.3 nmol/h
same,Ammonia elimination,HepaRG cells [2]; [10],107 ± 41 nmol/h/mg protein and 110 ± 49 nmol/h/mg protein
same,Urea production (absolute value),HepaRG cells [3]; [11],0.8 ± 0.5 nmol/h
same,Urea production,HepaRG cells [3]; [10],8.1 ± 6.8 nmol/h/mg protein and 6.0 ± 4.2 nmol/h/mg protein and 7.0 ± 7.0 nmol/h/mg protein
same,15N urea enrichment,HepaRG cells [4],15.5 ± 8.4 % of total urea and 16.0 ± 8.4 % of total urea
same,Galactose elimination (protein normalized),HepaRG cells [5],58 ± 17 nmol/h/mg protein
same,Galactose elimination (absolute value),HepaRG cells [5]; per well,7.2 ± 1.8 nmol/h
same,ApoA1 synthesis,HepaRG cells [6]; HepaRG monolayer +DMSO −CG,1.2 ± 1.1 ug/h/mg protein
same,ApoA1 production (absolute value),HepaRG cells [6]; [11],0.11 ± 0.11 µg/h
same,ApoA1 production,HepaRG cells [6]; [10],1.06 ± 0.95 μg/h/mg protein
same,AST leakage (protein normalized),HepaRG cells [7],4.9 ± 2.4 mU/h/mg protein
same,LDH leakage (protein normalized),HepaRG cells [7],21.2 ± 9.4 mU/h/mg protein
same,AST leakage (absolute value),HepaRG cells [7]; per well,0.43 ± 0.08 mU/h
same,LDH leakage (absolute value),HepaRG cells [7]; per well,1.87 ± 0.43 mU/h
same,Lactate consumption,HepaRG cells [8]; HepaRG monolayer +DMSO −CG,production
same,Lactate elimination,HepaRG cells [8]; [10],production
same,ArgII mRNA level,HepaRG cells [9]; HepaRG monolayer +DMSO −CG,718 ± 463 % of in vivo
same,ALB mRNA level,HepaRG cells [9]; [10],23 ± 4 % of in vivo and 22.7 ± 4.4 % of in vivo
same,ARG1 mRNA level,HepaRG cells [9]; [10],5 ± 4 % of in vivo and 4.6 ± 3.7 % of in vivo
same,CPS mRNA level,HepaRG cells [9]; [10],1.1 ± 0.4 % of in vivo
same,CYP2B6 mRNA level,HepaRG cells [9]; [10],61 ± 30 % of in vivo and 60.7 ± 30.0 % of in vivo
same,CYP3A4 mRNA level,HepaRG cells [9]; [10],69 ± 47 % of in vivo and 68.9 ± 47.2 % of in vivo
same,GS mRNA level,HepaRG cells [9]; [10],90 ± 29 % of in vivo and 90.1 ± 29.1 % of in vivo
same,HNF4 mRNA level,HepaRG cells [9]; [10],61 ± 21 % of in vivo and 60.8 ± 21.1 % of in vivo
same,PXR mRNA level,HepaRG cells [9]; [10],42 ± 19 % of in vivo and 41.7 ± 19.2 % of in vivo
same,effect on CYP2B6 and 3A4 expression,HepaRG cells [9]; [12],increased
same,effect on expression of other hepatic genes tested,HepaRG cells [9]; [12],either unaffected or decreased
same,"effect on gene expression of synthetic and metabolic genes, as CPS and albumin and galactose elimination",HepaRG cells [9]; presence of DMSO,inhibited
N=C(NO)NCC[C@H](N)C(=O)O [N^ω-hydroxy-nor-L-arginine],effect on Arginase II,Arginase II (Arg II),inhibited
same,effect on urea production,Arginase II (Arg II),prevented
